Measured values from publication PMC9374667 (Communications Biology, 2022).
In brackets after ≈: the same amount, converted by molar mass. Several values for one entry are separate records, joined by “and”; a condition that tells them apart may be missing. Equal values may be shown once.

Key:
db/db mice [1] = test: Weekly fasting glucose levels of db/db mice; format: in vivo; settings: 150mg/kg
Protocol: The lean wild type control and the db/db control mice were given equal vehicle volume (0.5% CMC-Na solution). All mice were monitored for food intake, body weight, and fasting blood glucose during the 35-day trial. Glucose tolerance test (GTT) and insulin resistance test (ITT) were performed at 4 and 5 weeks of treatment, respectively. Metabolic analysis was performed at 5 weeks of treatment. At the end of the study, blood samples were taken through the retroorbital venous sinus of mice, fat depots (brown fat, inguinal subcutaneous fat, epididymal fat, perirenal fat and mesenteric fat depot) were dissected, weighed, and immediately frozen in liquid nitrogen and stored at −80 °C until required. Weight of fat depots are expressed in percentage (fat depots weight /bodyweight * 100%).

[2] = In vitro dissolution studies: dynamic solubility in buffers and simulated biological fluids; format: physicochemical; design: BBR dissolved in CMC-Na (Figure S7a) / Ibu dissolved in CMC-Na (Figure S7b): unit not given here; settings: mean; for solubility at 0.5 h / solubility at 1 h / solubility at 2 h / solubility at 24 h: 37 °C
Protocol: Solubilities were determined by adding excess sample to 30 mL different mediums, such as HCl solution, acetate buffer, phosphate buffer, SGF, FaSSIF and FeSSIF. The configuration of various buffer solutions is shown in Supplementary Table 2. After being shaken at 400 rpm at 37 °C for 0.5, 1, 2, and 24 h, 0.3 mL of suspension was sampled and centrifuged at 14,000 rpm for 8 min to isolate mother liquor, and then analyzed by HPLC after dilution. All samples were analyzed in triplicate.

db/db mice [3] = test: HE staining of epididymal adipose tissue, adipocyte size; format: in vivo; settings: BJ 75 and 150 mg/kg, BBR 150 mg/kg, Ibu 150 mg/kg
Protocol: The adipose tissue was fixed overnight in 4% paraformaldehyde, then embedded in paraffin and cut into 5 µm thick slices. Tissue sections were stained with hematoxylin and eosin (H&E). For immunohistochemistry, sections were incubated with primary antibodies against F4/80 (1:100 dilution) diluted in the blocking solution at 4 °C overnight. The tissue sections were then incubated with the horseradish peroxidase (HRP)-conjugated secondary antibody at room temperature for 2 h. Finally, the sections were developed with diaminobenzidine (DAB) and counterstained with hematoxylin. Images were obtained under a microscope. To quantify the F4/80-positive macrophages, two random fields per sample were analyzed by Image J software. The IHC profiler plugin of ImageJ was used to calculate the F4/80 positive area.

db/db mice [4] = test: Glucose tolerance test (GTT); format: in vivo; settings: 150mg/kg
[5] = aqueous buffer, thermodynamic from solid, Acetate buffer (pH 4.5)
[6] = fasted state simulated intestinal fluid (FaSSIF-V1), FaSSIF-V1 (pH 6.5)
[7] = fed state simulated intestinal fluid (FeSSIF-V1), thermodynamic from solid, FeSSIF-V1 (pH 5.0)
[8] = simulated gastric fluid (SGF), SGF (pH 2.0)

CC(C)Cc1ccc(C(C)C(=O)O)cc1 (stereo not drawn) [Ibu, Ibuprofen, reference compound]
Blood Glucose (Figure S9n) (db/db mice [1]; week 0, individual animals): 16.0 mmol/L and 15.1 mmol/L and 15.0 mmol/L and 16.2 mmol/L and 11.3 mmol/L and 15.2 mmol/L | Blood Glucose (Figure S9n) (db/db mice [1]; week 1, individual animals): 16.3 mmol/L and 19.3 mmol/L and 21.7 mmol/L and 13.6 mmol/L and 13.3 mmol/L and 14.9 mmol/L | Blood Glucose (Figure S9n) (db/db mice [1]; week 2, individual animals): 20.7 mmol/L and 21.3 mmol/L and 19.0 mmol/L | Blood Glucose (Figure S9n) (db/db mice [1]; week 3, individual animals): 23.3 mmol/L and 18.9 mmol/L and 18.7 mmol/L and 22.0 mmol/L | Blood Glucose (Figure S9n) (db/db mice [1]; week 4, individual animals): 22.4 mmol/L and 22.3 mmol/L and 22.8 mmol/L | Blood Glucose (Figure S9n) (db/db mice [1]; week 5, individual animals): 23.6 mmol/L and 23.0 mmol/L | solubility at 0.5 h ([2]; Acetate buffer (pH 4.5)): 89.5 µg/mL (≈ 0.434 mM) | solubility at 1 h ([2]; Acetate buffer (pH 4.5)): 103 µg/mL (≈ 0.497 mM) | Ibu dissolved in CMC-Na (Figure S7b) ([2]; time 0.5): 0.09941 | Ibu dissolved in CMC-Na (Figure S7b) ([2]; time 1): 0.1517 | Ibu dissolved in CMC-Na (Figure S7b) ([2]; time 24): 0.385 | solubility at 0.5 h ([2]; Phosphate buffer (pH 6.8)): 2650 µg/mL (≈ 12.9 mM) | solubility at 1 h ([2]; Phosphate buffer (pH 6.8)): 2680 µg/mL (≈ 13 mM) | solubility at 2 h [2, 5]: 124 µg/mL (≈ 0.603 mM) | solubility at 24 h [2, 5]: 125 µg/mL (≈ 0.605 mM) | solubility at 2 h ([2]; aqueous buffer, thermodynamic from solid, Phosphate buffer (pH 6.8)): 2900 µg/mL (≈ 14.1 mM) | solubility at 24 h ([2]; fasted state simulated intestinal fluid (FaSSIF-V1), thermodynamic from solid, FaSSIF-V1 (pH 6.5)): 1480 µg/mL (≈ 7.16 mM) | solubility at 0.5 h [2, 6]: 1660 µg/mL (≈ 8.07 mM) | solubility at 1 h [2, 6]: 1610 µg/mL (≈ 7.8 mM) | solubility at 2 h [2, 6]: 1610 µg/mL (≈ 7.81 mM) | solubility at 0.5 h [2, 7]: 798 µg/mL (≈ 3.87 mM) | solubility at 1 h [2, 7]: 780 µg/mL (≈ 3.78 mM) | solubility at 2 h [2, 7]: 890 µg/mL (≈ 4.31 mM) | solubility at 24 h [2, 7]: 705 µg/mL (≈ 3.42 mM) | solubility at 0.5 h [2, 8]: 51.9 µg/mL (≈ 0.252 mM) | solubility at 1 h [2, 8]: 70.4 µg/mL (≈ 0.341 mM) | solubility at 2 h [2, 8]: 77.3 µg/mL (≈ 0.375 mM) | solubility at 24 h [2, 8]: 59.9 µg/mL (≈ 0.29 mM) | Size of adipocytes in eWAT compared with vehicle (db/db mice [3]): not significantly different | Blood Glucose (Figure S9p) (db/db mice [4]; time 0, individual animals): 23.3 mmol/L and 18.9 mmol/L and 18.7 mmol/L and 22.0 mmol/L | Blood Glucose (Figure S9p) (db/db mice [4]; time 15, individual animals): 33.3 mmol/L | Blood Glucose (Figure S9p) (db/db mice [4]; time 30, individual animals): 33.3 mmol/L | Blood Glucose (Figure S9p) (db/db mice [4]; time 45, individual animals): 33.3 mmol/L | Blood Glucose (Figure S9p) (db/db mice [4]; time 60, individual animals): 33.3 mmol/L and 31.7 mmol/L and 32.4 mmol/L | Blood Glucose (Figure S9p) (db/db mice [4]; time 90, individual animals): 33.3 mmol/L and 29.2 mmol/L and 22.9 mmol/L | Blood Glucose (Figure S9p) (db/db mice [4]; time 120, individual animals): 30.3 mmol/L and 22.8 mmol/L and 23.9 mmol/L
